The subject of test [1] is Staphylococcus aureus. Briefly: Bactericidal activity against Staphylococcus aureus ATCC 29213 assessed as decrease in cell viability at 4 ug/ml within 120 mins. The class given is functional.
Test [2] deals with Staphylococcus aureus. Briefly: Bactericidal activity against Staphylococcus aureus ATCC 29213 assessed as decrease in cell viability at MIC after 120 mins. The class given is functional.
Test [3] has as its system Staphylococcus aureus. Description: Bactericidal activity against Staphylococcus aureus ATCC 29213 assessed as cell lysis at 4 ug/ml after 60 mins by transmission electron microscopy. The class given is functional, organism-based.
The subject of test [4] is Staphylococcus aureus. Description: Bactericidal activity against Staphylococcus aureus ATCC 29213 assessed as altered cell morphology at 4 ug/ml after 60 mins by transmission electron microscopy. The class given is functional.
The test system of test [5] is Staphylococcus aureus. Description: Bactericidal activity against Staphylococcus aureus ATCC 29213 assessed as calcein release at 4 ug/ml. The class given is functional, organism-based.
Test [6] deals with Staphylococcus aureus. Briefly: Bactericidal activity against Staphylococcus aureus ATCC 29213 assessed as membrane permeability at 4 ug/ml by ToPro3 dye based assay. The class given is functional, organism-based.
In test [7] the test system is Staphylococcus aureus. Briefly: Bactericidal activity against Staphylococcus aureus ATCC 29213 assessed as cell lysis at 4 ug/ml after 120 mins. The class given is functional, organism-based.
In test [8] the test system is Staphylococcus aureus. Briefly: Bactericidal activity against Staphylococcus aureus ATCC 29213 assessed as cell lysis at MIC after 120 mins. The class given is functional.
Test [9] deals with Staphylococcus aureus. Briefly: microbe, parasite or virus in culture. Conditions: ATCC 29213.
Description: Antimicrobial activity against Staphylococcus aureus ATCC 29213

These results are taken from ChEMBL document CHEMBL1255360, “Daptomycin exerts bactericidal activity without lysis of Staphylococcus aureus” (2008).

Each structure is given as a SMILES string. Converted amounts (≈) assume the structure as drawn. The source made the active and inactive calls. The rule behind the calls is not given here. Where only a bound is given, the exact number is not on record here.

`CCCCCCCCCC(=O)N[C@@H](Cc1c[nH]c2ccccc12)C(=O)N[C@H](CC(N)=O)C(=O)N[C@@H](CC(=O)O)C(=O)N[C@@H]1C(=O)NCC(=O)N[C@@H](CCCN)C(=O)N[C@@H](CC(=O)O)C(=O)N[C@H](C)C(=O)N[C@@H](CC(=O)O)C(=O)NCC(=O)N[C@H](CO)C(=O)N[C@@H]([C@H](C)CC(=O)O)C(=O)N[C@@H](CC(=O)c2ccccc2N)C(=O)O[C@@H]1C`: the “fold change (FC)” value is greater than 1000 in the test with Staphylococcus aureus [1] and 200 with Staphylococcus aureus [2]. Moreover, the outcome in the test with Staphylococcus aureus [3], with Staphylococcus aureus [5], in the test on Staphylococcus aureus [6] and with Staphylococcus aureus [7] was inactive. Besides, the Activity in the test on Staphylococcus aureus [4] is given as greater than 90%; in the test on Staphylococcus aureus [8], 50%. This compound also showed an MIC with Staphylococcus aureus [9] of 0.5 µg/mL (≈ 0.309 µM).

In the case of `O=C(O)c1cn(C2CC2)c2cc(N3CCNCC3)c(F)cc2c1=O`, the outcome in the test on Staphylococcus aureus [6] was inactive.
